Results reported in US20240336654A1, “ANTIMICROBIAL PEPTIDOMIMETICS” (SPEXIS AG, priority 2021, published 2024).
Where a SMILES comes first, the peptide text is derived from it. Bridges are numbered along the chain shown (N, C = ends). [ ]: non-standard residue; d: D form. Hyp = O=C(O)[C@@H]1C[C@@H](O)CN1; Pen = CC(C)(S)[C@H](N)C(=O)O; ΔPro = O=C(O)[C@@H]1C=CCN1; dDab = NCC[C@@H](N)C(=O)O; Dab = NCC[C@H](N)C(=O)O

Key:
Type in all cases: cell-based
[1] = system: Escherichia coli ATCC 25922; details: ATCC 25922
Procedure: (§1) Lyophilized peptides were weighed on a Microbalance (Mettler MT5) and dissolved in sterile water to a final concentration of 1 mg/mL. Stock solutions were kept at +4° C., light protected.
(§2) The selective antimicrobial activities of the peptides were determined in 96-well plates (Greiner, polystyrene) by the standard CLSI broth microdilution method (Clinical and Laboratory Standards Institute. Methods for Dilution Antimicrobial Susceptibility Tests for Bacteria That Grow Aerobically; Approved Standard-Ninth Edition. CLSI document M07-A9 (ISBN 1-56238-783-9 [Print]; ISBN 1-56238-784-7 [Electronic]). Clinical and Laboratory Standards Institute, 950 West Valley Road, Suite 2500, Wayne, Pennsylvania 19087, USA, 2012) with slight modifications.
(§3) Colonies of the microorganisms were diluted in saline (0.85%, NaCl) and adjusted using a McFarland reader (bioMérieux SA, Marcy-l'Etoile, France) to 0.5 McFarland standard. Subsequently, the bacterial suspension was diluted in Mueller-Hinton II (MHII, cation adjusted) broth to give approximately 5×10^5 colony forming units (CFU/mL).
(§4) Inocula of the microorganisms were diluted into Mueller-Hinton II (MH, cation adjusted) broth and compared with a 0.5 McFarland standard to give appr. 10^6 colony forming units (CFU)/mL. Aliquots (90 μl) of inoculate were added to 10 μl of water+P-80 (Polysorbate 80, 0.002% final concentration) containing the peptide in serial two-fold dilutions at 10 fold final concentration. The following microorganisms were used to determine antibiotic selectivity of the peptides: Escherichia coli ATCC 25922, Escherichia coli MCR-1 Af 45 and Klebsiella pneumoniae SSI3010. Antimicrobial activities of the peptides were expressed as the minimal inhibitory concentration (MIC) in μg/mL at which no visible growth was observed after 18-20 hours of incubation at 35° C.

[2] = system: Klebsiella pneumoniae SSI3010; details: SSI3010
Procedure: as §1, §2, §3, §4

[3] = system: Escherichia coli MCR-1 Af 45; details: MCR-1 Af 45
Procedure: as §1, §2, §3, §4

[4] = system: human red blood cells (hRBC); details: red cells of human, 1 h, 200 μg/mL
Procedure: Lyophilized peptides were weighed on a Microbalance (Mettler MT5) and dissolved in sterile water to a final concentration of 1 mg/mL. Stock solutions were kept at +4° C., light protected. The peptides were tested for their hemolytic activity against human red blood cells (hRBC). Fresh hRBC were washed three times with phosphate buffered saline (PBS) and centrifuged for 5 min at 3000×g. Compounds (200 μg/mL) were incubated with 20% hRBC (v/v) for 1 h at 37° C. and shaking at 300 rpm. A value of 0% and 100% cell lyses, respectively, was determined by incubation of hRBC in the presence of PBS and 2.5% Triton X-100 in H2O, respectively. The samples were centrifuged, the supernatants were 8-fold diluted in PBS buffer and the optical densities (OD) were measured at 540 nm. The 100% lyses value (OD540H2O) gave an OD540 of approximately 0.5-1.0. Percent hemolysis was calculated as follows: (OD540peptide/OD540H2O)×100%.

Row | Escherichia coli ATCC 25922 MIC [1] [µg/mL] | Klebsiella pneumoniae SSI3010 MIC [2] [µg/mL] | Escherichia coli MCR-1 Af45 MIC [3] [µg/mL] | SMILES | Hemolysis at 0.2 g/L [4] [%]
1 | 0.25 | 0.5 | 0.125 | CC[C@H](C)[C@H](NC(=O)[C@@H]1C[C@@H](O)CN1C(=O)[C@@H](N)C(C)C)C(=O)N[C@H]1CSSC(C)(C)[C@@H](C(=O)N[C@@H](Cc2ccc(O)cc2)C(=O)O)NC(=O)[C@H](CCN)NC(=O)[C@H](CCN)NC(=O)[C@H](CCCCN)NC(=O)[C@@H](CCN)NC(=O)[C@H]([C@@H](C)O)NC(=O)[C@H](CCN)NC(=O)[C@H](CCCNC(=N)N)NC(=O)[C@H](CC(N)=O)NC(=O)[C@H](CO)NC(=O)[C@H](Cc2ccc(O)cc2)NC1=O [Example 12, Val-Hyp-Ile-Cys-Tyr-Ser-Asn-Arg-Dab-Thr-^DDab-Lys-Dab-Dab-Pen-Tyr] (H-V[Hyp]ICYSNR[Dab]T[dDab]K[Dab][Dab][Pen]Y-OH; disulfide 4-15) | <1
2 | 0.0625 | 0.125 | 0.0625 | CC[C@H](C)[C@H](NC(=O)[C@@H]1C[C@@H](O)CN1C(=O)[C@@H](N)C(C)C)C(=O)N[C@@H]1C(=O)N[C@@H](Cc2ccc(O)cc2)C(=O)N[C@@H]([C@@H](C)O)C(=O)N[C@@H](CC(N)=O)C(=O)N[C@@H](CCCNC(=N)N)C(=O)N[C@@H](CCN)C(=O)N[C@@H]([C@@H](C)O)C(=O)N[C@H](CCN)C(=O)N[C@@H](CCCCN)C(=O)N[C@@H](CCN)C(=O)N[C@@H](CCN)C(=O)N[C@H](C(=O)N[C@@H](Cc2ccc(O)cc2)C(=O)O)CSSC1(C)C [Example 15, Val-Hyp-Ile-Pen-Tyr-Thr-Asn-Arg-Dab-Thr-^DDab-Lys-Dab-Dab-Cys-Tyr] (H-V[Hyp]I[Pen]YTNR[Dab]T[dDab]K[Dab][Dab]CY-OH; disulfide 4-15) | <1
3 | 0.375 | 0.5 | 0.25 | CC[C@H](C)[C@@H]1NC(=O)[C@H](Cc2ccc(O)cc2)NC(=O)[C@@H](NC(=O)[C@@H](NC(=O)[C@@H]2C[C@@H](O)CN2C(=O)[C@@H](N)C(C)C)[C@@H](C)CC)C(C)(C)SSC[C@@H](C(=O)N[C@@H](Cc2ccc(O)cc2)C(=O)O)NC(=O)[C@H](CCN)NC(=O)[C@H](CCCNC(=N)N)NC(=O)[C@H](CCCCN)NC(=O)[C@@H](CCN)NC(=O)[C@H]([C@@H](C)O)NC(=O)[C@H](CCN)NC(=O)[C@H](CCCNC(=N)N)NC(=O)[C@H](CC(N)=O)NC1=O [Example 16, Val-Hyp-Ile-Pen-Tyr-Ile-Asn-Arg-Dab-Thr-^DDab-Lys-Arg-Dab-Cys-Tyr] (H-V[Hyp]I[Pen]YINR[Dab]T[dDab]KR[Dab]CY-OH; disulfide 4-15) | <1
4 | 0.25 | 0.25 | 0.125 | CC[C@H](C)[C@H](NC(=O)[C@@H]1C[C@@H](O)CN1C(=O)[C@@H](N)C(C)C)C(=O)N[C@@H]1C(=O)N[C@@H](Cc2ccc(O)cc2)C(=O)N[C@@H](CC(N)=O)C(=O)N[C@@H](CC(N)=O)C(=O)N[C@@H](CCCNC(=N)N)C(=O)N[C@@H](CCN)C(=O)N[C@@H]([C@@H](C)O)C(=O)N[C@H](CCN)C(=O)N[C@@H](CCCCN)C(=O)N[C@@H](CCN)C(=O)N[C@@H](CCN)C(=O)N[C@H](C(=O)N[C@@H](Cc2ccc(O)cc2)C(=O)O)CSSC1(C)C [Example 18, Val-Hyp-Ile-Pen-Tyr-Asn-Asn-Arg-Dab-Thr-^DDab-Lys-Dab-Dab-Cys-Tyr] (H-V[Hyp]I[Pen]YNNR[Dab]T[dDab]K[Dab][Dab]CY-OH; disulfide 4-15) | <1

Second part, the compound before the results:

Row | SMILES | Escherichia coli ATCC 25922 MIC [1] [µg/mL] | Klebsiella pneumoniae SSI3010 MIC [2] [µg/mL] | Escherichia coli MCR-1 Af45 MIC [3] [µg/mL] | Hemolysis at 0.2 g/L [4] [%]
5 | CC[C@H](C)[C@H](NC(=O)[C@@H]1C=CCN1C(=O)[C@@H](N)C(C)C)C(=O)N[C@@H]1C(=O)N[C@@H](Cc2ccc(O)cc2)C(=O)N[C@@H]([C@@H](C)O)C(=O)N[C@@H](CC(N)=O)C(=O)N[C@@H](CCCNC(=N)N)C(=O)N[C@@H](CCN)C(=O)N[C@@H]([C@@H](C)O)C(=O)N[C@H](CCN)C(=O)N[C@@H](CCCCN)C(=O)N[C@@H](CCN)C(=O)N[C@@H](CCN)C(=O)N[C@H](C(=O)N[C@@H](Cc2ccc(O)cc2)C(=O)O)CSSC1(C)C [Example 10, Val-Pro(3,4dehydro)-Ile-Pen-Tyr-Thr-Asn-Arg-Dab-Thr-^DDab-Lys-Dab-Dab-Cys-Tyr] (H-V[ΔPro]I[Pen]YTNR[Dab]T[dDab]K[Dab][Dab]CY-OH; disulfide 4-15) | 0.0625 | 0.125 | 0.0625 | <1
6 | CC[C@H](C)[C@H](NC(=O)[C@@H]1C[C@@H](O)CN1C(=O)[C@@H](N)C(C)C)C(=O)N[C@H]1CSSC[C@@H](C(=O)N[C@@H](Cc2ccc(O)cc2)C(=O)O)NC(=O)[C@H](CCN)NC(=O)[C@H](CCN)NC(=O)[C@H](CCCCN)NC(=O)[C@@H](CCN)NC(=O)[C@H]([C@@H](C)O)NC(=O)[C@H](CCN)NC(=O)[C@H](CCCNC(=N)N)NC(=O)[C@H](CC(N)=O)NC(=O)[C@H](CO)NC(=O)[C@H](Cc2ccc(O)cc2)NC1=O [Example 11, Val-Hyp-Ile-Cys-Tyr-Ser-Asn-Arg-Dab-Thr-^DDab-Lys-Dab-Dab-Cys-Tyr] (H-V[Hyp]ICYSNR[Dab]T[dDab]K[Dab][Dab]CY-OH; disulfide 4-15) | 0.5 | 0.5 | 0.25 | <1
7 | CC[C@H](C)[C@H](NC(=O)[C@@H]1C[C@@H](O)CN1C(=O)[C@@H](N)C(C)C)C(=O)N[C@@H]1C(=O)N[C@@H](C)C(=O)N[C@@H](CO)C(=O)N[C@@H](CC(N)=O)C(=O)N[C@@H](CCCNC(=N)N)C(=O)N[C@@H](CCN)C(=O)N[C@@H]([C@@H](C)O)C(=O)N[C@H](CCN)C(=O)N[C@@H](CCCCN)C(=O)N[C@@H](CCN)C(=O)N[C@@H](CCN)C(=O)N[C@H](C(=O)N[C@@H](Cc2ccc(O)cc2)C(=O)O)CSSC1(C)C [Example 13, Val-Hyp-Ile-Pen-Ala-Ser-Asn-Arg-Dab-Thr-^DDab-Lys-Dab-Dab-Cys-Tyr] (H-V[Hyp]I[Pen]ASNR[Dab]T[dDab]K[Dab][Dab]CY-OH; disulfide 4-15) | 0.5 | 0.5 | 0.125 | <1
8 | CC[C@H](C)[C@H](NC(=O)[C@@H]1C[C@@H](O)CN1C(=O)[C@@H](N)C(C)C)C(=O)N[C@@H]1C(=O)N[C@@H](CO)C(=O)N[C@@H](CO)C(=O)N[C@@H](CC(N)=O)C(=O)N[C@@H](CCCNC(=N)N)C(=O)N[C@@H](CCN)C(=O)N[C@@H]([C@@H](C)O)C(=O)N[C@H](CCN)C(=O)N[C@@H](CCCCN)C(=O)N[C@@H](CCN)C(=O)N[C@@H](CCN)C(=O)N[C@H](C(=O)N[C@@H](Cc2ccc(O)cc2)C(=O)O)CSSC1(C)C [Example 14, Val-Hyp-Ile-Pen-Ser-Ser-Asn-Arg-Dab-Thr-^DDab-Lys-Dab-Dab-Cys-Tyr] (H-V[Hyp]I[Pen]SSNR[Dab]T[dDab]K[Dab][Dab]CY-OH; disulfide 4-15) | 0.5 | 0.5 | 0.25 | <1
9 | CC[C@H](C)[C@H](NC(=O)[C@@H]1C[C@@H](O)CN1C(=O)[C@@H](N)C(C)C)C(=O)N[C@@H]1C(=O)N[C@@H](Cc2ccc(O)cc2)C(=O)N[C@@H](CCC(=O)O)C(=O)N[C@@H](CC(N)=O)C(=O)N[C@@H](CCCNC(=N)N)C(=O)N[C@@H](CCN)C(=O)N[C@@H]([C@@H](C)O)C(=O)N[C@H](CCN)C(=O)N[C@@H](CCCCN)C(=O)N[C@@H](CCN)C(=O)N[C@@H](CCN)C(=O)N[C@H](C(=O)N[C@@H](Cc2ccc(O)cc2)C(=O)O)CSSC1(C)C [Example 17, Val-Hyp-Ile-Pen-Tyr-Glu-Asn-Arg-Dab-Thr-^DDab-Lys-Dab-Dab-Cys-Tyr] (H-V[Hyp]I[Pen]YENR[Dab]T[dDab]K[Dab][Dab]CY-OH; disulfide 4-15) | 0.5 | 0.5 | 0.25 | <1
